The text below walks through data of patent US20250084060A1, “PRMT5 INHIBITORS AND METHODS OF TREATMENT” (HANGZHOU UNOGEN BIOTECH, LTD., priority 2022, published 2025).

Data set [1] has as its system Z-138 cells. In words: Z138 Cell Proliferation Assay. It is filed as cell-based. Particulars: Z-138 human mantle cell lymphoma cells, 72 hours, CTG readout. The method, then:
Human Mantle Cell Lymphoma
Z-138 cells were plated in a 96-well plate in IMDM medium containing 10% Horse Serum and PenStrep at a density of 10,000 cells/well. The plates were incubated at 37° C. in a humidified, 5% CO2 incubator. The next day, serially diluted compounds were added in duplicates for 72 hours. Compounds were tested at 10, 2.5, 0.625, 0.156, 0.039, 0.010 0.002 and 0 uM final concentrations. After 72 hours of compound addition, […] of Promega's CTG assay reagent was added and incubated at room temperature for 10 minutes. Chemiluminescence was read using a GloMax Discover instrument.

The target of data set [2] is PRMT5 (Homo sapiens (Human), UniProt O14744). In words: PRMT5 Chemiluminescent Assay. Type of data set: biochemical. Particulars: PRMT5 chemiluminescent assay kit (BPS Bioscience), histone H4 peptide substrate, eight-point dose response. The protocol: The PRMT5 activity is measured by using “PRMT5 Chemiluminescent Assay Kit” from BPS Bioscience, Catalog Number 52002L as per the instructions of the manufacturer. Briefly, the PRMT5 enzyme is incubated with S-adenosylmethionine in a 96-well plate precoated with histone H4 peptide substrate. Next, a highly specific antibody that recognizes methylated R3 residue of Histone H4 is added followed by a horseradkish peroxidase-labeled (HRP-labeled) secondary antibody. Detection is done by the addition of the HRP substrate to produce chemiluminescence that can be measured quantitatively.
Compounds were serially diluted 3-fold and dosed from 10 uM down to 0 uM. Compounds were tested in duplicates to generate an eight-point dose response for the calculation of their IC50s.

Data set [3] in a line: Mouse Pharmacokinetic Studies. It is filed as in vivo. As to conditions: male BALB/c mice, 3 mg/kg IV tail bolus, plasma. The method, then:
Samples were obtained from 3 male BALB/c mice at staggered time points. Each mouse was given a tail bolus injection of 3 mg/kg injection of Compound 70 formulated as an IV solution with DMSO: PEG400: Aqueous solution with 20% HP-β-CD (5:30:65, v:v:v) (adjusted by 1N HCl). Blood samples (collected into lithium heparin tubes) were obtained at predose, and at 5, 15, 30 min and at 1, 2-, 4-, 8- and 24-hour, post injection. Plasma was separated from blood and stored at −20° C. prior to analysis. Samples were assayed by a LC/MS/MS procedure [AB Sciex API 4000; ACE Excel 5 C4 Column (50 mm*2.1 mm); Mobile Phase A: 5 mM NH4OAc (with 0.05% FA); Mobile Phase B: ACN (with 0.1% FA)]. Pharmacokinetic parameters were obtained from plasma concentrations using the R program—PK Package, Basic Non-Compartmental Pharmacokinetics, Thomas Jaki and Martin J. Wolfsegger Version 1.3-3, Jan. 6, 2016.

The structures appear in SMILES notation.

PRMT5, sequence (O14744 2-637): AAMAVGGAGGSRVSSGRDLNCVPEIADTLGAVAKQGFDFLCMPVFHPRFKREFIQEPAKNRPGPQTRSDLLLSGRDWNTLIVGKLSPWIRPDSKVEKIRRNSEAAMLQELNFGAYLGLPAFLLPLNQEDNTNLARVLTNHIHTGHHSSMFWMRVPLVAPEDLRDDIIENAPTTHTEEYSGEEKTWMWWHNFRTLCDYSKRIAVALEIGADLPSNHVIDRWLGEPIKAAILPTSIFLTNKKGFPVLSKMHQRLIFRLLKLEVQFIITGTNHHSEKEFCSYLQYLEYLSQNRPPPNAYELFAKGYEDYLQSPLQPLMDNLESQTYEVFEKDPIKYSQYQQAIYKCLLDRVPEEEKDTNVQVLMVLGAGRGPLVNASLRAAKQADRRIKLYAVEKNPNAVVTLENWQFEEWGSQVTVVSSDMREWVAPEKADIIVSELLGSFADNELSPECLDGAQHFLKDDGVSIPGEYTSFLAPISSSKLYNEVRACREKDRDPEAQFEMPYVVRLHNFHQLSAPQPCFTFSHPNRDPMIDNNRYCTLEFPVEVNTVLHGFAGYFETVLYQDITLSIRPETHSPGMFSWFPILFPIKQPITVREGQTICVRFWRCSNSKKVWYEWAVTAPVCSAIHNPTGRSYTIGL
PRMT5, sequence (Q9BQA1 2-342 partner): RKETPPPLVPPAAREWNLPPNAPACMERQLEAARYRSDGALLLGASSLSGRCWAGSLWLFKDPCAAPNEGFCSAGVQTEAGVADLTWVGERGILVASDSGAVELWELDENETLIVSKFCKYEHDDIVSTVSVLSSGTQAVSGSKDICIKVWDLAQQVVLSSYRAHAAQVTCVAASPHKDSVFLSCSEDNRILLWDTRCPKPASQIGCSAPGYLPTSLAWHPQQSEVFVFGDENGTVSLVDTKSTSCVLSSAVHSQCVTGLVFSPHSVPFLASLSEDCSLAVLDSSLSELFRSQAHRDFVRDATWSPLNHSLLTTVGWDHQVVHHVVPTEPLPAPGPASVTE

For `CC(C)Cn1c(=O)n(C[C@H](O)CN2CCc3ccccc3C2)c(=O)c2ccc(Br)cc21` [Compound 70, 7-bromo-3-[(2R)-3-(3,4-dihydro-1H-isoquinolin-2-yl)-2-hydroxy-propyl]-1-isobutyl-quinazoline-2,4-dione], the IC50 in data set [1] came out at 673 nM. Further, the “IC50 Values” in data set [2] is below 0.014 μMolar. In data set [3], the AUC(0-inf) is 748 ng·h/mL, the C0 was determined as 1520 ng/mL, the mean residence time MRT inf amounted to 1.22 h and the clearance amounted to 66.9 mL/min/kg. The half-life in data set [3] was 1.56 h. Besides, the Vd in data set [3] (read-out: Vss) came out at 4.88 L/kg.
Regarding `O=c1c2ccccc2n(CC2CC2)c(=O)n1C[C@H](O)CN1CCc2ccccc2C1` [Compound 74, 1-(cyclopropylmethyl)-3-[(2R)-3-(3,4-dihydro-1H-isoquinolin-2-yl)-2-hydroxy-propyl]quinazoline-2,4-dione], 2940 nM corresponded to half-maximal inhibition in data set [1] (IC50). In addition, in data set [2], the “IC50 Values” is below 0.014 μMolar.
Consider `O=c1c2ccc(Cl)cc2n(CC2CC2)c(=O)n1C[C@H](O)CN1CCc2ccccc2C1` [Compound 78, 7-chloro-1-(cyclopropylmethyl)-3-[(2R)-3-(3,4-dihydro-1H-isoquinolin-2-yl)-2-hydroxy-propyl]quinazoline-2,4-dione], for which the IC50 was 1950 nM in data set [1] and 12 nM in data set [2].
`O=c1c2ccccc2n(CC(F)F)c(=O)n1C[C@H](O)CN1CCc2ccccc2C1` [Compound 79, 1-(2,2-difluoroethyl)-3-[(2R)-3-(3,4-dihydro-1H-isoquinolin-2-yl)-2-hydroxy-propyl]quinazoline-2,4-dione]: the half-maximal inhibitory concentration (IC50) in data set [1] turned out to be 2850 nM; in data set [2] it was 29 nM.
Taken in the same sequence, the figures for `O=c1c2ccc(Br)cc2n(CC2CC2)c(=O)n1C[C@H](O)CN1CCc2ccccc2C1` [Compound 80, 7-bromo-1-(cyclopropylmethyl)-3-[(2R)-3-(3,4-dihydro-1H-isoquinolin-2-yl)-2-hydroxy-propyl]quinazoline-2,4-dione] were 1120 nM and 9 nM.
Consider `COc1ccc(-c2ccc3c(=O)n(C[C@H](O)CN4CCc5ccccc5C4)c(=O)n(CC4CC4)c3c2)cn1` [Compound 91, 1-(cyclopropylmethyl)-3-[(2R)-3-(3,4-dihydro-1H-isoquinolin-2-yl)-2-hydroxy-propyl]-7-(6-methoxy-3-pyridyl)quinazoline-2,4-dione], for which the figures for the IC50 in data set [1] and in data set [2] were 1930 nM and 43 nM, respectively.
Consider `O=c1c2ccccc2n(CC2CCC2)c(=O)n1C[C@H](O)CN1CCc2ccccc2C1` [Compound 92, 1-(cyclobutylmethyl)-3-[(2R)-3-(3,4-dihydro-1H-isoquinolin-2-yl)-2-hydroxy-propyl]quinazoline-2,4-dione], for which the IC50 came out at 3630 nM in data set [1] and 36 nM in data set [2].
Regarding `O=c1c2cc(-c3ccc(F)cc3)ccc2n(CC(F)F)c(=O)n1C[C@H](O)CN1CCc2ccccc2C1` [Compound 94, 1-(2,2-difluoroethyl)-3-[(2R)-3-(3,4-dihydro-1H-isoquinolin-2-yl)-2-hydroxy-propyl]-6-(4-fluorophenyl)quinazoline-2,4-dione], the concentration for half-maximal inhibition (IC50) came out at 10000 nM in data set [1] and 45 nM in data set [2].
Compound `CC(C)Cn1c(=O)n(C[C@H](O)CN2CCc3ccccc3C2)c(=O)c2ccccc21` [Compound 102, 3-[(2R)-3-(3,4-dihydro-1H-isoquinolin-2-yl)-2-hydroxy-propyl]-1-isobutyl-quinazoline-2,4-dione] gave an IC50 in data set [2] of 71 nM.
Still for that read-out and setting: as for `O=c1c2ccccc2n(CC2CCOCC2)c(=O)n1CC(O)CN1CCc2ccccc2C1` (stereo not drawn) [Compound 105, 3-[3-(3,4-dihydro-1H-isoquinolin-2-yl)-2-hydroxy-propyl]-1-(tetrahydropyran-4-ylmethyl)quinazoline-2,4-dione], the figure is 903 nM.

By IC50 is commonly meant the midpoint of a concentration-inhibition curve. Usually AUC(0-inf) stands for total exposure, with the tail of the curve extrapolated. The term MRT inf denotes a mean duration of stay, worked out from the concentration-time curve. For orientation: clearance means a measure of how efficiently the substance is removed, as volume per time. A higher clearance goes with a high capacity for elimination. A word on the half-life: it is the time in which the quantity being followed falls by half. The low end stands for fast loss, the high end for slow loss.
